This passage reports IC50 results from patent US9006450B2 (Boehringer Ingelheim International GmbH, priority 2010, dated 2015).

The target in this assay is T1, human ACC2 (Homo sapiens, UniProt O00763).
T1 construct: made in house; host or cells: insect cells (baculoviral expression system)
T1 sequence (O00763 129-2458 limits assumed): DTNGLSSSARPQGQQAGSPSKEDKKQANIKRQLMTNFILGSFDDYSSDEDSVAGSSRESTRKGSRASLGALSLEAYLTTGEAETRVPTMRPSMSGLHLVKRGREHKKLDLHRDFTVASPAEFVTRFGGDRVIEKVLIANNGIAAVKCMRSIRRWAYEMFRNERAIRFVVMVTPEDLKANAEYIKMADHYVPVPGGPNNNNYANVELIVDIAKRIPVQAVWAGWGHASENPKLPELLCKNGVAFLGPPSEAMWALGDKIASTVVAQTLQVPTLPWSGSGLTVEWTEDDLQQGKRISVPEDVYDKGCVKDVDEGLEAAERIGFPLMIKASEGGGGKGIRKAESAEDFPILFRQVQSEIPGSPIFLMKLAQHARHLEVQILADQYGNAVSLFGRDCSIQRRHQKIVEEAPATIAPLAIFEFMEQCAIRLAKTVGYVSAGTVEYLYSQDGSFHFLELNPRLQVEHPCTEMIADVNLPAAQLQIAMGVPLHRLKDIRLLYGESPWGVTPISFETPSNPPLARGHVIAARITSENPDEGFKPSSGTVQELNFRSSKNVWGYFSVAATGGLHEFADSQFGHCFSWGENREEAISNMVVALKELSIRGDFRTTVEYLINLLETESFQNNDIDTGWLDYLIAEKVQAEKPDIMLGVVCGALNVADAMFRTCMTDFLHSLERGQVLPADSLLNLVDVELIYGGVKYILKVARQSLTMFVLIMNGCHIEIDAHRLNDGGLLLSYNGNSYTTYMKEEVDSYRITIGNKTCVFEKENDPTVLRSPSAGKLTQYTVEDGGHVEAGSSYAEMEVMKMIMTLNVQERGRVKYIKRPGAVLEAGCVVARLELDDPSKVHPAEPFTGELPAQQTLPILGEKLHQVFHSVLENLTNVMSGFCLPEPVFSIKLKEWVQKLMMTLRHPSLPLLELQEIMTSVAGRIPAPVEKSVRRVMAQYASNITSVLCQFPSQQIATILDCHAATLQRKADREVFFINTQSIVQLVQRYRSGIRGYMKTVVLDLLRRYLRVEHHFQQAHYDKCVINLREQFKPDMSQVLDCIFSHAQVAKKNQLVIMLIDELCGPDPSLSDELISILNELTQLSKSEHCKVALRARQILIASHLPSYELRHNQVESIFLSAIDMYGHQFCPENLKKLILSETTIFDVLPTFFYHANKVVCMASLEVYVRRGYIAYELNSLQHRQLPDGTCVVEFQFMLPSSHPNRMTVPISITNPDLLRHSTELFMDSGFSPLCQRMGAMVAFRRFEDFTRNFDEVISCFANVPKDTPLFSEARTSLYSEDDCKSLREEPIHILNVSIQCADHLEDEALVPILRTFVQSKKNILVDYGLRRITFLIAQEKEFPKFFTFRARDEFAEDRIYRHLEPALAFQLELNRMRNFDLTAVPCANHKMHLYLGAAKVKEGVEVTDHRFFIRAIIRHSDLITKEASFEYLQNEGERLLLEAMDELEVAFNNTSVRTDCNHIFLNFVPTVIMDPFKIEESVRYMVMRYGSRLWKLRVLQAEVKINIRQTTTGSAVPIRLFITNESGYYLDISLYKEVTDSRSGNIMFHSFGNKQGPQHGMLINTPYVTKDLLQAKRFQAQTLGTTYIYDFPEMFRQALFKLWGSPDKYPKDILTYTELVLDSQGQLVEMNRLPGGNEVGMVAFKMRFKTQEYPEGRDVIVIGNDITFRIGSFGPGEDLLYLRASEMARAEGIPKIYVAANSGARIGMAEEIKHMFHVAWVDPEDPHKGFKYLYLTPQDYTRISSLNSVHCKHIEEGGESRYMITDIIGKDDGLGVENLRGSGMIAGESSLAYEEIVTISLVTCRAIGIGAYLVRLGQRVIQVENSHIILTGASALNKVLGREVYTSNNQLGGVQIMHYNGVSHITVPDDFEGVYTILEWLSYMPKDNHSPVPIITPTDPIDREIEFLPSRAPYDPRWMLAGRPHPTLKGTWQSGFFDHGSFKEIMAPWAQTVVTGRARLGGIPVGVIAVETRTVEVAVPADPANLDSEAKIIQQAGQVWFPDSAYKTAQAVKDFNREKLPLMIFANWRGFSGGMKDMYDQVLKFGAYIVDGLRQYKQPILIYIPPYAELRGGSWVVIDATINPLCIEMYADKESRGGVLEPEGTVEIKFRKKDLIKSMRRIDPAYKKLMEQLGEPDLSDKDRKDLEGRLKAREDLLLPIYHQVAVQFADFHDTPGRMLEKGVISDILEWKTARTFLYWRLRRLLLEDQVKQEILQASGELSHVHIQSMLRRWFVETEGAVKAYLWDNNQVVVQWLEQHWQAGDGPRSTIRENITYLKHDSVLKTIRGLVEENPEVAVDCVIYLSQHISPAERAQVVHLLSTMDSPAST
Nature of the assay: ACC2 assay, spectrophotometric 384 well assay (NADH-linked, coupled lactate dehydrogenase/pyruvate kinase). Type of assay: biochemical. As to conditions: ACC2 assay, hACC2 construct lacking 128 N-terminal amino acids, 25° C., 340 nm; read-out: IC50. In outline:
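Human ACC2 lacking N-terminal 128 aa, baculovirus/insect-cell expressed, anion-exchange purified; 100 mM Tris pH 7.5, 10 mM citrate, 25 mM KHCO3, 1% DMSO. Started with 200 μM NADH and acetyl-CoA plus 500 μM ATP; PK/LDH-coupled A340 decrease read 15 min at 25° C. IC50 by nonlinear fit of low-control-subtracted slopes.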
One may read the IC50 as the concentration that inhibits the measured activity by half. For `CC(=O)N[C@@H](C)c1ccc(C2CCN(c3ncc(-c4ccc(F)c(C#N)c4)cn3)CC2)cc1` [Example 10.50], the IC50 amounted to 50 nM.
`CCCOc1ccc(N2CCC(c3ccc([C@H](C)NC(=O)CC)cc3)CC2)c(OC)c1` [Example 1.147]: the IC50 came to 490 nM.
Under `COc1ccc(-c2cnc(N3CCC(c4ccc([C@H](C)NC(C)=O)cc4)CC3)nc2)cn1` [Example 10.2] stands 200 nM; under `CCCOc1ccc(N2CCC(c3ccc([C@H](C)NC(=O)OC)cc3)CC2)c(OC)c1` [Example 1.132], 840 nM; under `CCSc1ccc(-c2cnc(N3CCC(c4ccc([C@H](C)NC(C)=O)cc4)CC3)nc2)cc1` [Example 10.64], 7000 nM.
Consider `CC(=O)N[C@@H](C)c1ccc(C2CCN(c3ccnc(OC4CCC4)n3)CC2)cc1` [Example 11.110], for which the IC50 worked out at 230 nM.
For the molecule `COc1ccc(Nc2cc(N3CCC(c4ccc([C@H](C)NC(C)=O)cc4)CC3)ncn2)cc1` [Example 11.53], the IC50 is 6000 nM.
Turning to `CC(=O)N[C@@H](C)c1ccc(C2CCN(c3ncc(-c4ccc(OCC5CC5)nc4)cn3)CC2)cc1` [Example 10.51], the IC50 is 1500 nM.
Take `CC(=O)N[C@@H](C)c1ccc(C2CCN(c3cc(OC4CCCC4)ncn3)CC2)cc1` [Example 11.7]: the IC50 turned out to be 170 nM.
`CC(=O)N[C@@H](C)c1ccc(C2CCN(c3cnc(C4CC4)cn3)CC2)cc1` [Example 1.173]: the IC50 was found to be 820 nM.
Turning to `CCCOc1cnc(N2CCC(c3ccc([C@H](C)NC(C)=O)cc3)CC2)cn1` [Example 8.8], the IC50 came out at 290 nM.
As to `CCOc1ccc(N2CCC(c3ccc([C@H](C)NC(=O)C4CC4)cc3)CC2)c(F)c1` [Example 1.82], the IC50 is 160 nM.
With `COc1ccc(N2CCC(c3ccc([C@H](C)NC(C)=O)cc3)CC2)cc1C` [Example 1.160], the IC50 is 2100 nM.
As to `CC(=O)N[C@@H](C)c1ccc(C2CCN(c3cc(F)ncc3C)CC2)cc1` [Example 5.51], the IC50 came to 4800 nM.
Regarding `CC(=O)N[C@@H](C)c1ccc(C2CCN(c3ncc(C(=O)NCC4OCCO4)cn3)CC2)cc1` [Example 18.83], the IC50 came to 8700 nM.
Turning to `CC(=O)N[C@@H](C)c1ccc(C2CCN(c3ccc(Oc4cncnc4)nc3)CC2)cc1` [Example 1.110], the IC50 came out at 4500 nM.
In the case of `CCCOc1ccc(N2CCC(c3ccc([C@H](C)NC(=O)C4CC4)cc3)CC2)cc1` [Example 1.23], the 50% inhibitory concentration (IC50) was found to be 50 nM.
With `COc1cc(OCC2CC2)ccc1N1CCC(c2ccc([C@H](C)NC(C)=O)cc2)CC1` [Example 1.36], the IC50 is 410 nM.
As for `CCOc1ccc(N2CCC(c3ccc([C@H](C)NC(C)=O)cc3)CC2)nn1` [Example 3.11], the 50% inhibitory concentration (IC50) was 3000 nM.
For `CC(=O)N[C@@H](C)c1ccc(C2CCN(c3cc(OC(C)C)ncn3)CC2)cc1` [Example 11.2], the 50% inhibitory concentration (IC50) came out at 80 nM.
In the case of `CC(=O)N[C@@H](C)c1ccc(C2CCN(c3cccc(OCC4CCOCC4)c3)CC2)cc1` [Example 9.13], the half-maximal inhibitory concentration (IC50) was found to be 570 nM.
As to `CCOc1ccc(N2CCC(c3ccc(CC(C)NC(C)=O)cc3)CC2)cc1` (stereo not shown) [Example 2.1, N-(2-{4-[1-(4-Ethoxy-phenyl)-piperidin-4-yl]-phenyl}-1-methyl-ethyl)-acetamide], the concentration for half-maximal inhibition (IC50) amounted to 2100 nM.
With `CCCOc1ccc(N2CCC(c3ccc([C@H](C)NC(C)=O)cc3)CC2)c(C#N)c1` [Example 13.1, (S)—N-(1-{4-[1-(2-Cyano-4-propoxy-phenyl)-piperidin-4-yl]-phenyl}-ethyl)-acetamide] the figure was 90 nM; with `CCC(C)Oc1ccc(N2CCC(c3ccc([C@H](C)NC(C)=O)cc3)CC2)cc1F` (stereo partly shown) [Example 8.53], 300 nM; with `CC(=O)N[C@@H](C)c1ccc(C2CCN(c3cc(NCC4CCC4)ncn3)CC2)cc1` [Example 11.95], 2000 nM.
With `CCCOc1ccc(N2CCC(c3ccc([C@H](C)NC(C)=O)cc3)CC2)nc1` [Example 5.3] the figure was 130 nM.
As for `CC(=O)N[C@@H](C)c1ccc(C2CCN(c3ncc(C4CC4)cc3F)CC2)cc1` [Example 10.305], the IC50 worked out at 460 nM.
Regarding `CC(=O)N[C@@H](C)c1ccc(C2CCN(c3ncc(-c4cccn4C)cn3)CC2)cc1` [Example 10.72], the concentration for half-maximal inhibition (IC50) came to 1200 nM.
On to `CCOc1ccc(N2CCC(c3ccc([C@H](C)NC(=O)N(C)CC)cc3)CC2)cc1` [Example 14.51], for which the IC50 came to 610 nM.
With `CC(=O)N[C@@H](C)c1ccc(C2CCN(c3ccc(OC4CCCC4)c(Cl)c3)CC2)cc1` [Example 8.39], the IC50 turned out to be 110 nM.
As to `CC(=O)N[C@@H](C)c1ccc(C2CCN(c3cccc(OC4CCCC4)c3)CC2)cc1` [Example 8.5], the half-maximal inhibitory concentration (IC50) stood at 220 nM.
`CC(=O)N[C@@H](C)c1ccc(C2CCN(c3ccnc(Nc4cncnc4)n3)CC2)cc1` [Example 11.117]: the half-inhibitory concentration (IC50) is 4300 nM.
For `CC(=O)N[C@@H](C)c1ccc(C2CCN(c3cc(NC4CCC4)ncn3)CC2)cc1` [Example 11.46], the IC50 came to 2800 nM.
With `CC(C)Oc1cc(N2CCC(c3ccc([C@H](C)NC(=O)N(C)C)cc3)CC2)ccn1` [Example 1.128], the IC50 is 120 nM.
As for `CC(=O)N[C@@H](C)c1ccc(C2CCN(c3ccc(OCC(C)C)c(C)c3)CC2)cc1` [Example 8.26], the concentration for half-maximal inhibition (IC50) was 840 nM.
Take `CC(=O)N[C@@H](C)c1ccc(C2CCN(c3ncc(-c4ccsc4)cn3)CC2)cc1` [Example 10.62]: the half-maximal inhibitory concentration (IC50) was determined as 50 nM.
On to `CC(=O)N[C@@H](C)c1ccc(C2CCN(c3nc4ccc(C)cc4s3)CC2)cc1` [Example 5.56], for which the IC50 was 1200 nM.
With `CC(=O)N[C@@H](C)c1ccc(C2CCN(c3ncc(-c4cc5cc(C#N)ccc5[nH]4)cn3)CC2)cc1` [Example 10.117], the IC50 was 680 nM.
Regarding `CC(=O)N[C@@H](C)c1ccc(C2CCN(c3ncc(-c4ccc(OC(F)(F)F)cc4)cn3)CC2)cc1` [Example 10.15], the IC50 was 550 nM.
With `CCC(CC)Oc1cc(N2CCC(c3ccc([C@H](C)NC(C)=O)cc3)CC2)ccn1` [Example 19.24] the figure was 240 nM; with `COc1ccc(-c2cnc(N3CCC(c4ccc([C@H](C)NC(C)=O)cc4)CC3)nc2)c(F)c1` [Example 10.37], 190 nM; with `CC(=O)N[C@@H](C)c1ccc(C2CCN(c3ccnc(OCC4(C)CC4)c3)CC2)cc1` [Example 19.15], 80 nM.
With `CC(=O)N[C@@H](C)c1ccc(C2CCN(c3ccc(-c4ccc5[nH]ccc5c4)cn3)CC2)cc1` [Example 10.301], the IC50 is 320 nM.
For `COCCOc1ccc(N2CCC(c3ccc([C@H](C)NC(C)=O)cc3)CC2)cc1OC` [Example 8.22], the IC50 was determined as 14600 nM.
Consider `CC(=O)N[C@@H](C)c1ccc(C2CCN(c3ccnc(NCc4ccco4)n3)CC2)cc1` [Example 11.60], for which the concentration for half-maximal inhibition (IC50) amounted to 5300 nM.
Take `CC(=O)N[C@@H](C)c1ccc(C2CCN(c3cc(N(C)C)ncn3)CC2)cc1` [Example 11.105]: the IC50 amounted to 1700 nM.
`CCOc1cc(N2CCC(c3ccc([C@H](C)NC(C)=O)cc3)CC2)c(F)cn1` [Example 1.190]: the concentration for half-maximal inhibition (IC50) stood at 1400 nM.
With `CC(=O)N[C@@H](C)c1ccc(C2CCN(c3ccc(OCC4CC4)c(F)c3)CC2)cc1` [Example 9.41] the figure was 220 nM; with `CC(=O)N[C@@H](C)c1ccc(C2CCN(c3ccnc(N(C)Cc4ccccc4)n3)CC2)cc1` [Example 11.83], 410 nM.
